Test results published in paper PMC4215638, “J-147 a Novel Hydrazide Lead Compound to Treat Neurodegeneration: CeeTox™ Safety and Genotoxicity Analysis” (Journal of neurology & neurophysiology, 2013).

Legend:
P-glycoprotein (PgP) = P-glycoprotein (PgP) binding using the MTT assay with and without cyclosporin A; format: cell-based, rat; set-up: key to % Difference (PgP interaction ranking): NC=No change; conditions: for % Control (Compound + CSA) / % Control (Compound): MTT, H4IIE cells, single exposure concentration (50 μM), 24-hr; for % Control (Compound + CSA): with cyclosporin A; for % Control (Compound): without CSA; for % Difference (PgP interaction ranking): difference in the absence and presence of CSA
Method: For this assay, cells are incubated with and without cyclosporin A (CSA) (a PgP inhibitor) at a single exposure concentration (50 μM) and the difference in toxicity determined with the MTT assay. Compounds with increased toxicity in the presence of CSA have a high probability of binding to PgP proteins. However, compounds of low toxicity will typically not show a difference relative to the addition of CSA, regardless of whether they bind to PgP. At the end of the 24-hr exposure period the culture medium was removed and the remaining attached cells were assayed for their ability to reduce MTT. Viable cells will have the greatest amount of MTT reduction and highest absorbance values. Percent control values were determined by dividing the mean absorbance/fluorescence of the treatment group by the mean absorbance of the control group and multiplying by 100.

[1] = test system: rat hepatoma (H4IIE) cell line; assay: Lipid peroxidation measured as 8-isoprostane ELISA; format: cell-based; set-up: key to Membrane Lipid Peroxidation: 0=No Change; 1=Modest increase with maximum values<15 pg/mL; 2=Concentration related increase with maximum values>15 pg/mL; 3=Concentration related increase with a maximum value>30 pg/mL; conditions: H4IIE cells; for Membrane Lipid Peroxidation: 8-isoprostane score
Method: (§1) Rat hepatoma derived H4IIE cells were used as the test system because the cell have a rapid doubling time in culture (i.e. 22 hours). The culture medium used for these cells was Eagles Minimum Essential Medium (MEM) with 10% bovine serum and 10% calf serum (Invitrogen). H4IIE cells were seeded into 96-well plates and allowed to equilibrate for approximately 48 hr before drug assay to allow cells to move into a stable growth phase prior to treatment. Following the equilibration period the cells were exposed to J-147 at concentrations of 1–300 μM. Three to 7 replicates were done for each assay to construct concentration-response curves. Solubility was determined by Nephalometry techniques immediately after dosing and prior to harvesting the cells at 6 or 24 hr. Following the incubation period, cells or their supernatant (culture medium) were analyzed for changes in cell proliferation (cell mass), membrane leakage, mitochondrial function, oxidative stress, and apoptosis. The resultant exposure concentration response curves were graphed and analyzed for determining the concentration that produced a half maximal response or TC50 [28, 30].
8-ISO levels were determined using an ELISA (Cayman Chemical Inc). 8-ISO is a member of a family of eicosanoids produced nonenzymatically by random oxidation of tissue phospholipids by oxygen radicals. Therefore, an increase in 8-ISO is an indirect measure of increased lipid peroxidation. At the end of the exposure period, plates were either analyzed immediately or stored at −80°C until needed for analysis. Color development, which is […] proportional to the amount of 8-ISO present in the sample, was read on a Packard Fusion or equivalent plate reader at 415 nm. Background absorbance produced from Ellman’s reagent is subtracted from all wells. Non-specific binding is subtracted from the maximum binding wells to give a corrected maximum binding expressed as Bo. The percent of bound (B) relative to maximum binding capacity (Bo) for all unknown samples and for standards was determined an expressed as (%B/Bo). The %B/Bo for standards was plotted against the log of 8-ISO added to yield the final standard curve. This curve was used to convert %B/Bo to pg 8-ISO/mL of sample.

[2] = test system: rat hepatoma (H4IIE) cell line; assay: CeeTox cellular ATP content, luciferin/luciferase; format: cell-based; conditions: H4IIE cells, 24-hr exposure
Method: (§2) All Ceetox assays utilizing the rat hepatoma (H4IIE) cell line as the test system were conducted by CeeTox Inc Kalamazoo, MI. Ceetox assays are described in detail by McKim and Lapchak and according to a Standard Operating Procedure (SOP).
as §1
Adenosine triphosphate (ATP) content was determined using a modification of a standard luciferin/luciferase luminescence assay based on a reaction between ATP + D-luciferin + oxygen catalyzed by luciferase to yield Oxyluciferin + AMP + PPi + CO2 + light. The emitted light is proportional to the amount of ATP present. […] Plates were analyzed immediately or stored at −20°C until needed. […] ATP was quantified by adding ATP substrate solution and then reading luminescence on a Packard Fusion Luminescence reader. […] Background corrected luminescence was used to determine percent change relative to controls by dividing treated values by control values and multiplying by 100.

[3] = test system: rat hepatoma (H4IIE) cell line; assay: CeeTox MTT reduction assay; format: cell-based; conditions: H4IIE cells, 24hour
Method: as §2, §1
(§3) The presence of α-Glutathione S-transferase (α-GST), an enzyme leakage marker, was measured in the culture medium using an ELISA assay purchased from Argutus Medical. […] Absorbance values were measured with a Packard SpectraCount™ reader at 450 nm and reference absorbance at 650 nm. Leakage of α-GST from the cell into the culture medium was determined by collecting the culture medium at the end of the exposure period. Thus, the values measured represent total enzyme leakage lost over the exposure period. […] Sample absorbance was read at 570 nm and reference absorbance at 650 nm with a Packard Fusion reader. […]

[4] = test system: rat hepatoma (H4IIE) cell line; assay: CeeTox cell mass (cell number), propidium iodide fluorescence; format: cell-based; conditions: H4IIE cells; for Cell Number TC50: 24hour analysis endpoint, cell number (or mass)
Method: as §2, §1
Cell mass in each well was measured with a modified propidium iodide (PI), a specific nucleic acid binding dye that fluoresces when intercalated within the nucleic acids. The 15nm shift enhances PI fluorescence approximately 20 times while the excitation maxima are shifted 30–40nm. Triton-X-100 was used to permeabilize the H4IIE cells thereby allowing the PI access to intracellular RNA and DNA. Fluorescence was measured using a Packard Fusion plate reader at 540 nm excitation and 610 nm emission. Data is collected as relative fluorescent units (RFU) and expressed as percent change relative to control;

[5] = test system: rat hepatoma (H4IIE) cell line; assay: CeeTox membrane toxicity, α-GST leakage ELISA; format: cell-based; conditions: H4IIE cells, 24hour; membrane toxicity measured using GST leakage
Method: as §2, §1, §3

SMILES	% Control (Compound + CSA) (P-glycoprotein (PgP))	% Control (Compound) (P-glycoprotein (PgP))	Interaction with Permeability-glycoprotein (P-glycoprotein (PgP); cells incubated with and without CSA, 50 μM)	% Difference (PgP interaction ranking) (P-glycoprotein (PgP))	Effect on 8-isoprostane [1]	Membrane Lipid Peroxidation [1]	ATP TC50 [2]	MTT TC50 [3]	Cell Number TC50 [4]	Concentration range with decrease in cell proliferation ([4]; prior to effects on other markers, in the absence of cell death)	Mem Tox TC50 [5]
COc1cccc(/C=N/N(C(=O)C(F)(F)F)c2ccc(C)cc2C)c1 [J-147, (E)-N-(2,4-Dimethylphenyl)-2,2,2-trifluoro-N′-(3-methoxybenzylidene) acetohydrazide]	92.1%	93.7%	low interaction	NC	did not have any effect	0	210000 nM	228000 nM	293000 nM	20 to 100 µM	>300000 nM
C=C(C)[C@H]1Cc2c(ccc3c2O[C@@H]2COc4cc(OC)c(OC)cc4[C@@H]2C3=O)O1 [Rotenone, rotenone]	86.1%	80.5%	–	NC	–	0	50 nM	70 nM	40 nM	–	930 nM
CC[C@@]1(O)C(=O)OCc2c1cc1n(c2=O)Cc2cc3ccccc3nc2-1 [Camptothecin, camptothecin]	85.3%	76.6%	–	NC	–	1 (1=Modest increase with maximum values<15 pg/mL)	300 nM	500 nM	600 nM	–	>300000 nM
